The text below walks through data of US10479792B2, “Compounds” (GlaxoSmithKline Intellectual Property Development Limited, priority 2015, dated 2019).

Molecules are shown by their SMILES.

What all share (type): cell-based
The subject of one data set is THP-1 cells. In words: Leishmania donovani intracellular assay (Assay 5), THP-1 cytotoxicity. As to conditions: human, 96 h incubation, read-out: cytotoxicity against THP-1 cells, pEC50 (converted). How it is done:
(§1) Assay 5. Leishmania donovani Intracellular Assay
(§2) Compounds were dispensed into black 384-well assay plates (Greiner) by acoustic dispensing (LabCyte ECHO). For potency determinations, eleven-point, one in three dilution curves were generated, with a top concentration of 50 μM. THP-1 human monocytes cells were dispensed in T225 tissue culture flasks and differentiated using 30 nM of PMA, after 24 hours they were infected overnight using Leishmania donovani expressing Green Fluorescent Protein (eGFP) amastigotes in the same T225 tissue culture flasks at a multiplicity of infection of 10. Next, any remaining free amastigotes were washed away with PBS and the infected THP-1 cells were harvested by trypsinisation. The infected cells were then plated into 384-well plates containing the compounds to be tested, at 3000 cells per well in RPMI media with 2% FBS and 25 mM Sodium bicarbonate. After 96 h incubation at 37° C. in presence of 5% CO2, the plates were fixed with 4% formaldehyde for 30 minutes, washed with PBS and stained with 0.1 mg/mL of DAPI for 30 minutes and washed again with PBS. The plates were imaged on a Perkin Elmer Opera high-content imaging system using a 20× air objective with two expositions, one for DAPI stain and other for eGFP. Images were analysed using the Acapella building blocks system (Perkin Elmer). The image analysis algorithm first identified the THP-1 nuclei followed by demarcation of the cytoplasm and identification of intracellular amastigotes. This algorithm reported mean number of parasites per THP-1 cell, the percentage of infected THP-1 cells and the total number of THP-1 cells.

The subject of data set [1] is Leishmania donovani. The data set can be described thus: Leishmania donovani intracellular assay (Assay 5). Particulars: THP-1, 96 h, eGFP amastigotes in THP-1 cells, 96 h incubation, read-out: pEC50 value against Leishmania donovani (converted). The procedure: as §1, §2
Data set [2] has as its system Leishmania donovani. The data set can be described thus: Intramacrophage Leishmania donovani assay (Assay 1), average number of amastigotes per cell (potency readout). As to conditions: THP-1, 96 h, amastigotes in PMA-differentiated THP-1 macrophages, 96 h incubation, read-out: pEC50 value against Leishmania donovani (converted). The procedure: Assay 1. Intramacrophage Leishmania donovani Assay
The intramacrophage Leishmania assay was performed using a modified version of the method described in De Rycker et al. (Antimicrob Agents Chemother. 2013 July; 57(7):2913-22. Comparison of a high-throughput high-content intracellular Leishmania donovani assay with an axenic amastigote assay. De Rycker M, Hallyburton I, Thomas J, Campbell L, Wyllie S, Joshi D, Cameron S, Gilbert I H, Wyatt P G, Frearson J A, Fairlamb A H, Gray D W.). Procedure: 350 nl of compound was pre-dispensed into 384 well sterile intermediary plates. For single point screening, amphotericin B was added to all wells of column 24 as a positive control (final concentration 2 μM) and DMSO to column 23. For potency determinations, ten-point, one in three dilution curves were created with the highest concentration being 50 μM and on each plate a control curve of amphotericin B was included. Controls were as follows: columns 11 and 12: DMSO, columns 23 and 24: amphotericin B (final concentration 2 μM). To the intermediary plates, 35 μl of THP-1 media was added and plates were shaken for >5 min to ensure complete mixing. THP-1 cells (8,000 per well, 50 μl) were plated into black clear-bottom 384 well plates (Corning) in presence of 20 nM PMA. After 20 min at RT, the plates were incubated at 37° C. under 5% CO2 in a humidified incubator for 75 h. The cells were then washed with […] sterile phosphate buffered saline (PBS) supplemented with 1 mM CaCl2, 0.5 mM MgCl2, 0.1% (w/v) bovine serum albumin (PBS-A) and amastigotes were added to all wells at a multiplicity of infection of 5 (40,000 amastigotes per well). After 40 min at RT, plates were returned to the incubator. Amastigotes were incubated in the presence of THP-1 macrophages for 16 h. Any remaining extracellular amastigotes were subsequently removed with an overflow wash of 1 mL PBS-A per well (wash buffer is being aspirated from the top of the well as it is being dispensed) followed by addition of 25 μl of the compound pre-dilutions using a Fluidx Ipette-pro pipetting station. The final dilution of each compound was 200-fold. Plates were incubated for 96 h and then washed (250 μl PBS-A) and fixed (4% (v/v) formaldehyde-PBS, 30 min, RT). After fixation, the wells were washed with 250 μl PBS, stained (10 μg/mL DAPI, 0.4 μg mL-1 HCS Cellmask Deep Red in PBS+0.1% (v/v) Triton X-100, 30 min, RT) and washed with 250 μl PBS. Finally, PBS+0.05% (v/v) thimerosal was added to the wells, the plates were sealed and imaged on a high-content microscope (GE IN Cell 2000) using a 10× objective. Image analysis was carried out with GE IN Cell Analyzer 1000 Workstation using the “Multi Target Analysis” module. Settings for segmentation were as follows: nuclei: minimum area: 142.384 μm2, sensitivity: 81, method: top-hat; cells: characteristic area: 2500 μm2, sensitivity: 60, method: multiscale top-hat; organelles (amastigotes): granule size 1-3, 3 scales, sensitivity: 90, detection in entire cell. For each well, i) THP-1 cell count (cytotoxicity readout) and ii) average number of amastigotes per cell (potency readout) were calculated, both in terms of pEC50 values.

The test system of another data set is RnH9c2 cells. The data set can be described thus: Trypanosoma cruzi intracellular assay (Assay 2), host cell cytotoxicity. As to conditions: rat, H9C2 cardiomyocytes infected with Trypanosoma cruzi, 72 h incubation, read-out: cytotoxicity against RnH9c2 cells, pEC50 (converted). How it is done:
(§3) Compounds were dispensed into black 384-well assay plates (Greiner) by acoustic dispensing (LabCyte ECHO). For potency determinations, eleven-point, one in three dilution curves were generated, with a top concentration of 50 μM. H9C2 rat cardiomyocytes cells were dispensed in T225 tissue culture flasks and after 4 hours they were infected during 18 hours with T. cruzi trypomastigotes in the same T225 tissue culture flasks at a multiplicity of infection of 1. Next, any remaining free trypomastigotes were washed away with PBS and the infected H9C2 cells were harvested by trypsinisation. The infected H9C2 cells were then plated into 384-well plates containing the compounds to be tested, at 2500 cells per well in DMEM media with 2% FBS, 1% Penicillin/Streptomicin, 2 mM L-Glutamine, 1 mM Na Pyruvate and 25 mM HEPES. After 72 h incubation at 37° C. in presence of 5% CO2, the plates were fixed and stained with 4% formaldehyde and 2 μM Draq5 for 3 hours at room temperature. The plates were imaged on a Perkin Elmer Opera high-content imaging system using a 20× air objective. Images were analyzed using the Acapella building blocks system (Perkin Elmer). The image analysis algorithm first identified the H9C2 nuclei followed by demarcation of the cytoplasm and identification of intracellular amastigotes. This algorithm reported mean number of parasites per H9C2 cell, the percentage of infected H9C2 cells and the total number of H9C2 cells.

A further data set deals with Trypanosoma cruzi. The data set can be described thus: Trypanosoma cruzi intracellular assay (Assay 2). As to conditions: infected H9C2 rat cardiomyocytes, 72 h incubation, read-out: pEC50 value against Trypanosoma cruzi (converted). How it is done: as §3

Turning to `O=C(Nc1cccc(-c2ccn3c(-c4ccccc4)cnc3n2)c1)N1CCCC1` [Example 2, N-(3-(3-phenylimidazo[1,2-a]pyrimidin-7-yl)phenyl)pyrrolidine-1-carboxamide], the EC50 at 96 h in the data set on THP-1 cells is 12.6 to 50.1 µM. Besides, the values for the EC50 in the data set on Leishmania donovani [1] and in the data set with Leishmania donovani [2] were 0.126 to 10 µM and 0.251 to 10 µM, respectively.

With `O=C(Nc1ccc(F)c(-c2ccn3c(-c4ccccc4)cnc3n2)c1)N1CCCC1` [Example 3, N-(4-fluoro-3-(3-phenylimidazo[1,2-a]pyrimidin-7-yl)phenyl)pyrrolidine-1-carboxamide], the EC50 at 96 h with THP-1 cells is 12.6 to 50.1 µM. For the same molecule, the EC50 was 0.126 to 10 µM in the data set with Leishmania donovani [1] and 0.251 to 10 µM with Leishmania donovani [2].

For the molecule `O=C(Nc1ccc(F)c(-c2ccn3c(N4CCCCC4)cnc3n2)c1)N1CCCC1` [Example 5, N-(4-fluoro-3-(3-(piperidin-1-yl)imidazo[1,2-a]pyrimidin-7-yl)phenyl)pyrrolidine-1-carboxamide], the EC50 at 96 h in the data set with THP-1 cells is 12.6 to 50.1 µM. Further, the figures for the EC50 in the data set with Leishmania donovani [1] and in the data set with Leishmania donovani [2] were 0.126 to 10 µM and 0.251 to 10 µM, respectively.

Take `O=C(Nc1ccc(F)c(-c2cnn3c(-c4ccccc4)cnc3n2)c1)N1CCCC1` [Example 7, N-(4-fluoro-3-(7-phenylimidazo[1,2-b][1,2,4]triazin-3-yl)phenyl)pyrrolidine-1-carboxamide]: in the data set on RnH9c2 cells, the EC50 at 72 h is 20 µM. Moreover, the EC50 in the data set with Leishmania donovani [2] was 0.251 to 10 µM.

Regarding `O=C(Nc1ccc(F)c(-c2ccn3ccnc3n2)c1)N1CCCC1` [Example 16, N-(4-fluoro-3-(imidazo[1,2-a]pyrimidin-7-yl)phenyl)pyrrolidine-1-carboxamide], the EC50 at 96 h in the data set with THP-1 cells is 12.6 to 50.1 µM. In addition, the figures for the EC50 in the data set with Leishmania donovani [1] and with Leishmania donovani [2] were 12.6 to 39.8 µM and 12.6 to 20 µM, respectively.

As to `CC(C)Cc1cnc2nc(-c3cc(NC(=O)N4CCCC4)ccc3F)ccn12` [Example 17, N-(4-fluoro-3-(3-isobutylimidazo[1,2-a]pyrimidin-7-yl)phenyl)pyrrolidine-1-carboxamide], in the data set with RnH9c2 cells, the EC50 at 72 h was 5.01 µM. For the same molecule, the EC50 in the data set on Leishmania donovani [1] is 0.126 to 10 µM; in the data set with Leishmania donovani [2], 0.251 to 10 µM.

For the molecule `O=C(Nc1ccc(F)c(-c2ccn3c(C4CCOCC4)cnc3n2)c1)N1CCCC1` [Example 19, N-(4-fluoro-3-(3-(tetrahydro-2H-pyran-4-yl)imidazo[1,2-a]pyrimidin-7-yl)phenyl)pyrrolidine-1-carboxamide], the EC50 at 72 h in the data set with RnH9c2 cells was 39.8 µM. Further, the EC50 in the data set on Leishmania donovani [1] was 0.126 to 10 µM; in the data set on Leishmania donovani [2], 0.251 to 10 µM.

With `O=C(Nc1ccc(F)c(-c2ccn3c(N4CCOCC4)cnc3n2)c1)N1CC[C@H](F)C1` [Example 23a], the EC50 with Trypanosoma cruzi is 31.6 µM; with Leishmania donovani [1] it was above 50.1 µM; with Leishmania donovani [2], above 50.1 µM.

As to `O=C(Nc1ccc(F)c(-c2ccn3c(-c4ccccn4)cnc3n2)c1)N1CCCC1` [Example 26, N-(4-fluoro-3-(3-(pyridin-2-yl)imidazo[1,2-a]pyrimidin-7-yl)phenyl)pyrrolidine-1-carboxamide], the EC50 at 96 h in the data set on THP-1 cells was 12.6 to 50.1 µM. For the same molecule, the EC50 at 72 h in the data set on RnH9c2 cells was 39.8 µM. In addition, the EC50 in the data set on Leishmania donovani [1] is 0.126 to 10 µM; in the data set on Leishmania donovani [2], 0.251 to 10 µM.

For `C[C@H]1CCCN1C(=O)Nc1ccc(F)c(-c2ccn3c(N4CCOCC4)cnc3n2)c1` [Example 33a], the EC50 with Trypanosoma cruzi is 12.6 µM; in the data set on Leishmania donovani [1], 12.6 to 39.8 µM; in the data set on Leishmania donovani [2], above 50.1 µM.

As to `Cc1cccc(-c2cnc3nc(-c4cc(NC(=O)N5CCCC5)ccc4F)ccn23)n1` [Example 37, N-(4-fluoro-3-(3-(6-methylpyridin-2-yl)imidazo[1,2-a]pyrimidin-7-yl)phenyl)pyrrolidine-1-carboxamide], in the data set on THP-1 cells, the EC50 at 96 h is 12.6 to 50.1 µM. Moreover, the EC50 at 72 h in the data set with RnH9c2 cells was 25.1 µM. Further, the EC50 in the data set on Leishmania donovani [1] is 0.126 to 10 µM.

Turning to `CC1CN(C(=O)Nc2ccc(F)c(-c3ccn4c(N5CCOCC5)cnc4n3)c2)C1` [Example 49, N-(4-fluoro-3-(3-morpholinoimidazo[1,2-a]pyrimidin-7-yl)phenyl)-3-methylazetidine-1-carboxamide], the values for the EC50 with Leishmania donovani [1] and with Leishmania donovani [2] were 0.126 to 10 µM and 12.6 to 20 µM, respectively.

For the molecule `O=C(Nc1ccc(F)c(-c2cc(C(=O)N3CCCC3)n3ccnc3n2)c1)N1CCCC1` [Example 50, N-(4-fluoro-3-(5-(pyrrolidine-1-carbonyl)imidazo[1,2-a]pyrimidin-7-yl)phenyl)pyrrolidine-1-carboxamide], the EC50 in the data set with Leishmania donovani [1] was 12.6 to 39.8 µM; with Leishmania donovani [2], above 50.1 µM.
